Laboratory results taken from ChEMBL document CHEMBL6096692, “Discovery of 2(1H)-Quinoxalinone Derivatives as Potent and Selective MAT2A Inhibitors for the Treatment of MTAP-Deficient Cancers” (J Med Chem, 2025).
“And” between values parts separate entries of the source, which are not always exact repeats. Identical values can stand only once. The source made the active and inactive calls. The calls are words filed in the database; no cut-off is given here.

Key:
[1] = biological target: S-adenosylmethionine synthase isoform type-2 (Homo sapiens, UniProt P31153); assay: Inhibition of MAT2A (unknown origin) using L-methionine and ATP as substrate preincubated with compound for 10 mins followed by substrate addition and measured after 60 mins by kinase-glo max reagent based microplate reader analysis
S-adenosylmethionine synthase isoform type-2, sequence (P31153 whole entry, canonical isoform): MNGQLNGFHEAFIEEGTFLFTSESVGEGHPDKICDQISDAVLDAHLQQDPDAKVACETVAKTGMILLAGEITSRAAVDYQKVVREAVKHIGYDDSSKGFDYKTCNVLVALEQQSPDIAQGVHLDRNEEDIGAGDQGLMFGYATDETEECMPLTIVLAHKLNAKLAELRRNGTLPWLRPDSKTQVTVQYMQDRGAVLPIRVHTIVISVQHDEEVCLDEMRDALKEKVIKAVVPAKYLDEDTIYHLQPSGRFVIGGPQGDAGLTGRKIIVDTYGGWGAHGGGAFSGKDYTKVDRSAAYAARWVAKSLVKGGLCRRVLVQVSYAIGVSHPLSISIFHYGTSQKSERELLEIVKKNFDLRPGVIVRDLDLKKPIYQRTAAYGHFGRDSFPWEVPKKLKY

B16-F10 [2] = assay: Antiproliferative activity against mouse B16-F10 cells harboring wild type MTAP assessed as inhibition of cell viability measured for 96 hrs by SRB assay; format: functional, cell-based; details: B16-F10, 96 h
B16-F10 [3] = assay: Antiproliferative activity against MTAP knockout mouse B16-F10 cells assessed as inhibition of cell viability measured for 96 hrs by SRB assay; format: functional, cell-based; details: B16-F10, 96 h
[4] = Selectivity index, ratio of IC50 for antiproliferative activity against mouse B16-F10 cells harboring wild type MTAP assessed as inhibition of cell viability to IC50 for antiproliferative activity against MTAP knockout mouse B16-F10 cells assessed as inhibition of cell viability; format: functional
SF-126 = assay: Induction of DNA damage in human SF-126 cells harboring wild type MTAP assessed as increase in gammaH2AX level at 0.1 to 10 uM measured for 96 hrs by Western blot analysis; format: functional, cell-based; details: dose 0.1-10 µM
MIA PaCa-2 = assay: Antitumor activity against MTAP null human MIA PaCa-2 cells xenografted in mouse assessed as tumor growth inhibition at 30 to 60 mg/kg, po measured after 28 days; format: functional, organism-based; details: dose 30-60 mg/kg, time 28.0 day

Structure (SMILES)	IC50 [1]	IC50 (B16-F10 [2]) [nM]	IC50 (B16-F10 [3]) [nM]	Ratio IC50 [4]	Activity (SF-126)	Activity (MIA PaCa-2)
Cc1nc2ccc(-c3nc4cnc(NCC(F)(F)F)nc4n(-c4ccc(OC(F)F)cc4)c3=O)cc2n1C	64.4 nM	18100	530	34.2	–	–
COc1ccc(-c2nc3cnc(NCC(F)(F)F)nc3n(-c3ccc(OCC(F)F)cc3)c2=O)cc1	> 1000 nM	–	–	–	–	–
O=c1c(-c2ccc3c(c2)CCCO3)nc2cnc(NCC(F)(F)F)nc2n1-c1ccc(OC(F)F)cc1	37.7 nM	> 20000	1670	>12	–	–
O=c1c(-c2ccc3ncn(C4CCCC4)c3c2)nc2cnc(NCC(F)(F)F)nc2n1-c1ccc(OC(F)F)cc1	108 nM and 23.1 nM	9740	300	32.5	–	–
COc1ccc(-c2nc3cnc(NCC(F)(F)F)nc3n(-c3ccc(OC(F)F)nc3)c2=O)cc1	> 1000 nM	–	–	–	–	–
COc1ccc(-c2nc3cnc(NCC(F)(F)F)nc3n(-c3ccc(C(F)(F)F)cc3)c2=O)cc1	> 1000 nM	–	–	–	–	–
COc1ccc(-c2nc3cnc(NCC(F)(F)F)nc3n(-c3cccc(OC(F)F)c3)c2=O)cc1	> 1000 nM	–	–	–	–	–
Cn1cnc2ccc(-c3nc4cnc(NCC(F)(F)F)nc4n(-c4ccc(OC(F)F)cc4)c3=O)cc21	63.4 nM	> 20000	310	>64.5	–	–
O=c1c(-c2ccc3c(c2)CCO3)nc2cnc(NCC(F)(F)F)nc2n1-c1ccc(OC(F)F)cc1	89 nM	> 20000	2480	>8.1	–	–
COc1ccc(-c2nc3cnc(NCC(F)(F)F)nc3n(-c3ccc(OC(F)F)cc3)c2=O)cc1	100 nM	> 20000	3300	>6.1	–	–
O=c1c(-c2ccc3ncccc3c2)nc2cnc(NCC(F)(F)F)nc2n1-c1ccc(OC(F)F)cc1	435 nM	–	–	–	–	–
O=c1c(-c2ccc3ncn(C4CC4)c3c2)nc2cnc(NCC(F)(F)F)nc2n1-c1ccc(OC(F)F)cc1	83 nM	16600	400	41.4	–	–
COc1ccc(-c2nc3cnc(NCC(F)(F)F)nc3n(-c3ccc(Br)cc3)c2=O)cc1	151 nM	> 20000	6540	>3.1	–	–
COc1ccc(-n2cc3cnc(NCC(F)(F)F)nc3c(-c3ccc(Br)cc3)c2=O)cc1	56.1 nM	2150	330	6.5	inactive	Active
COc1ccc(-c2nc3cnc(NCC(F)(F)F)nc3n(-c3ccc(Cl)cc3)c2=O)cc1	138 nM	> 20000	9270	>2.2	–	–

Continued, in another order:

IC50 [1]	IC50 (B16-F10 [2]) [nM]	IC50 (B16-F10 [3]) [nM]	Structure (SMILES)	Ratio IC50 [4]	Activity (SF-126)	Activity (MIA PaCa-2)
89.2 nM	5260	760	CC1=Nc2ccc(-c3nc4ccc(C5CC5)cc4n(-c4ccc(OC(F)F)cc4)c3=O)cc2C1(C)C	6.9	–	–
103 nM	14900	1130	O=c1c(-c2ccc3nncn3c2)nc2ccc(C3CC3)cc2n1-c1ccc(OC(F)F)cc1	13.2	–	–
98.5 nM	–	–	O=c1c(-c2ccc3ncoc3c2)nc2ccc(C3CC3)cc2n1-c1ccc(OC(F)F)cc1	–	–	–
23.1 nM	800	210	Cn1cnc2ccc(-c3nc4ccc(C5CC5)nc4n(-c4ccc(OC(F)F)cc4)c3=O)cc21	3.8	–	–
28.9 nM	9070	1520	Cn1nnc2ccc(-c3nc4ccc(C5CC5)cc4n(-c4ccc(OC(F)F)cc4)c3=O)cc21	3.8	–	–
81.4 nM	13900	1340	O=c1c(-c2ccn3nccc3c2)nc2ccc(C3CC3)cc2n1-c1ccc(OC(F)F)cc1	10.4	–	–
49 nM	–	–	Cn1cnc2ccc(-c3nc4cnc(NC5CC5)nc4n(-c4ccc(OC(F)F)cc4)c3=O)cc21	–	–	–
228 nM	–	–	Cn1cnc2ccc(-c3nc4ccc(C5CCC5)cc4n(-c4ccc(OC(F)F)cc4)c3=O)cc21	–	–	–
38.8 nM	> 20000	1250	Cn1cc2cc(-c3nc4cnc(NCC(F)(F)F)nc4n(-c4ccc(OC(F)F)cc4)c3=O)ccc2n1	>16	–	–
104 nM	> 20000	3080	CCOc1ccc2nc(-c3ccc4ncn(C)c4c3)c(=O)n(-c3ccc(OC(F)F)cc3)c2c1	>6.5	–	–
63.9 nM	> 20000	780	O=c1c(-c2ccc3nccn3c2)nc2ccc(C3CC3)cc2n1-c1ccc(OC(F)F)cc1	>25.6	–	–
613 nM	7240	2960	Cn1cnc2ccc(-c3nc4cnc(NCC5CC5)nc4n(-c4ccc(OC(F)F)cc4)c3=O)cc21	2.4	–	–
613 nM	–	–	Cn1cnc2ccc(-c3nc4cnc(C5CC5)cc4n(-c4ccc(OC(F)F)cc4)c3=O)cc21	–	–	–
89 nM	> 20000	2480	COc1ccc2nc(-c3ccc4ncn(C)c4c3)c(=O)n(-c3ccc(OC(F)F)cc3)c2c1	>8.1	–	–
138 nM	3330	370	CC(C)n1cnc2ccc(-c3nc4ccc(C5CC5)cc4n(-c4ccc(OC(F)F)cc4)c3=O)cc21	9	–	–
79.2 nM	> 20000	4360	Cn1cc2cc(-c3nc4ccc(C5CC5)cc4n(-c4ccc(OC(F)F)cc4)c3=O)ccc2n1	>4.6	–	–
115 nM	> 20000	14300	O=c1c(-c2ccc3ncnn3c2)nc2ccc(C3CC3)cc2n1-c1ccc(OC(F)F)cc1	>1.4	–	–
